Tests used:
[1] = biological target: rat mGlu5 receptor (Rattus norvegicus, UniProt P31424); assay: Calcium mobilization assay in HEK293 cells expressing the rat mGlu5 receptor; format: cell-based; conditions: for loss in functional activity versus 6: relative to 6 (VU0357121); for improvement in potency versus 8b: relative to 8b; for EC50 (nM): calcium mobilization, HEK293 cells expressing rat mGlu5
[2] = biological target: T1, mGlu5 MPEP allosteric binding site (Rattus norvegicus, UniProt P31424); assay: [3H]methoxyPEPy binding
[3] = In vitro oxidative metabolism; format: in vitro ADME, rat
[4] = biological target: human mGlu5 receptor (Homo sapiens, UniProt P41594); assay: Functional assay in lower expressing human mGlu5 receptor cell line; format: cell-based
[5] = biological target: wild-type rat mGlu5 receptor (Rattus norvegicus, UniProt P31424); assay: Fold-shift of glutamate concentration-response curve at wild-type receptor; format: cell-based; conditions: 1 μM compound
[6] = test system: mGlu5 MPEP site sensitive mutants (P654F, T780A, A809V); assay: Fold-shift of glutamate CRC at MPEP site sensitive point mutants; format: cell-based; conditions: 1 μM compound, compared to wild-type rat mGlu5
[7] = Non-crossover in vivo pharmacokinetic studies in rats; design: species or system rat
[8] = Reversal of amphetamine-induced hyperlocomotion in rats; format: in vivo, rat; conditions: rat, brain (unbound), po, 100 mg/kg
[9] = test system: amphetamine-induced hyperlocomotion; assay: as above; format: in vivo, rat; conditions: rats, 100 mg/kg p.o., vehicle 20% β-CD
[10] = biological target: T1, mGlu5 MPEP allosteric binding site; conditions: cited from earlier work

T1 sequence (P31424 21-1203): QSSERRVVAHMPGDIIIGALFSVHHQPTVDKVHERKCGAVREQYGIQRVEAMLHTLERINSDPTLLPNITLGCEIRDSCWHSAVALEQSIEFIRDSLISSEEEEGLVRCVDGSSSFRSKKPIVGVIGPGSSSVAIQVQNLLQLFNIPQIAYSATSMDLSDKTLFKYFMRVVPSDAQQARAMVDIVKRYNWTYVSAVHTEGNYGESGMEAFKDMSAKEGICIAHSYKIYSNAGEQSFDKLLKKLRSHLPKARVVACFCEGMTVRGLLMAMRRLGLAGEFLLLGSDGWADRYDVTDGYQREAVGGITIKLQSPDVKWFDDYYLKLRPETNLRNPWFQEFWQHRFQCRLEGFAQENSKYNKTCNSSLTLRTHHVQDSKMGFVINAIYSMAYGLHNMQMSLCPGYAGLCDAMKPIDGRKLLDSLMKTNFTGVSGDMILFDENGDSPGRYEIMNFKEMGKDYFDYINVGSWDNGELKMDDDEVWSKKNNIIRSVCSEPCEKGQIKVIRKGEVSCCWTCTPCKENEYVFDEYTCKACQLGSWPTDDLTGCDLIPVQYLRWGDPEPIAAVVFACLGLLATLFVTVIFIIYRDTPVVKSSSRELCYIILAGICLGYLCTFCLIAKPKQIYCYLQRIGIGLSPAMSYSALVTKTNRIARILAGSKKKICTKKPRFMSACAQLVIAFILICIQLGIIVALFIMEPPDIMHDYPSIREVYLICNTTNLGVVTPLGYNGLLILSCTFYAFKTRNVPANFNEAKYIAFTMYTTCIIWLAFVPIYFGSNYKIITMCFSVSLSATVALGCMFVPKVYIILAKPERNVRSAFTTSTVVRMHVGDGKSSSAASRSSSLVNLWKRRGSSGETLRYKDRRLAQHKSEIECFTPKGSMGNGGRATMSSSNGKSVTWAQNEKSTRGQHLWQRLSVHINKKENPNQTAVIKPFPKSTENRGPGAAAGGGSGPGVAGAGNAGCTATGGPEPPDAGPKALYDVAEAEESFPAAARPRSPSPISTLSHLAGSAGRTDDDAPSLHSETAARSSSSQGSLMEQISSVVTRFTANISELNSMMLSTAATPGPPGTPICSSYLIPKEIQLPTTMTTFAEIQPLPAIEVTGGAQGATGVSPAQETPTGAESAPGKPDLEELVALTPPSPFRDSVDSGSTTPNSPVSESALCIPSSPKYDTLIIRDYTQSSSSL
Sequence of rat mGlu5 receptor (P31424 21-1203): as above
Sequence of wild-type rat mGlu5 receptor (P31424 21-1203): as above
Sequence of human mGlu5 receptor (P41594 21-1212): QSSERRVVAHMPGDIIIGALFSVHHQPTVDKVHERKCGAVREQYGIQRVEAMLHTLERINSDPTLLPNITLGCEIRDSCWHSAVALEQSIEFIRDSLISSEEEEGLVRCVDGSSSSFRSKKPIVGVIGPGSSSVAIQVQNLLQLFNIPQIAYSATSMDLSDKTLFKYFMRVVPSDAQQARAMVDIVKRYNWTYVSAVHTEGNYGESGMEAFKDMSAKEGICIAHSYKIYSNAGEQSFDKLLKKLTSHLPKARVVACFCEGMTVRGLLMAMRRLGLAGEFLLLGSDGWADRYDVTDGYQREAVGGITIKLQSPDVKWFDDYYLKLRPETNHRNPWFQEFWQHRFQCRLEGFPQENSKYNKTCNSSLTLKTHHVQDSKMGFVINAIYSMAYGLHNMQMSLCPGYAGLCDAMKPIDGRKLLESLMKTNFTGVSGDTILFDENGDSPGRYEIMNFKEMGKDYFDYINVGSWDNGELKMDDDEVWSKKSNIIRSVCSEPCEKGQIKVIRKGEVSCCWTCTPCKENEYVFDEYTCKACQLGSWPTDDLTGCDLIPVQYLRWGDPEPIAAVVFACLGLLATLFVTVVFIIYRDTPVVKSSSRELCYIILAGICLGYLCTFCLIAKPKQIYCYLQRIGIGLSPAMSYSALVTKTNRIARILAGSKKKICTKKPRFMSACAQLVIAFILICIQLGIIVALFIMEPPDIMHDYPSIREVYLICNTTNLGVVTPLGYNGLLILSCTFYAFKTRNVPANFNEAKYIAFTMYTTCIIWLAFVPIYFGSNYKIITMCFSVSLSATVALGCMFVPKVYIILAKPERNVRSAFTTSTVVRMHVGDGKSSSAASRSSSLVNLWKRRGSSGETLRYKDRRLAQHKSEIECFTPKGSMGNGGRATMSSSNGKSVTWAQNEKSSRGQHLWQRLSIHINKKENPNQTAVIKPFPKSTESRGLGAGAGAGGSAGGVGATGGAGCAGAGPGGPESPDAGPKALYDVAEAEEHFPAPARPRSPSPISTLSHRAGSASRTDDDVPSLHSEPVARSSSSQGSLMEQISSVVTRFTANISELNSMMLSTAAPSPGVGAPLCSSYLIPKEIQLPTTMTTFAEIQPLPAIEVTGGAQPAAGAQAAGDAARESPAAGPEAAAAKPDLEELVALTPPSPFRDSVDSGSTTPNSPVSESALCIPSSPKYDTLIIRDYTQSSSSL

CCCCOc1ccc(C(=O)NC2CCCCC2)cc1 [7a]
loss in functional activity versus 6 [1]: > 15 fold

CCCCOc1ccc(C(=O)NC2CCC2)cc1 [7c]
loss in functional activity versus 6 [1]: > 15 fold

CCCCOc1ccc(C(=O)Nc2ccc(F)cc2F)cn1 [8a]
loss in functional activity versus 6 [1]: 22 fold

CCCCCOc1ccc(C(=O)NC2CCCCC2)cn1 [8d]
improvement in potency versus 8b [1]: fivefold

CCCOc1ccc(C(=O)NC2CCCCC2)cn1 [8e]
EC50 (nM) [1]: complete loss of potentiation

CCCC(C)Oc1ccc(C(=O)NC2CCCCC2)cn1 (stereo not shown) [8f]
EC50 (nM) [1]: unproductive

CCC(C)COc1ccc(C(=O)NC2CCCCC2)cn1 (stereo not shown) [8g]
improvement in potency versus 8b [1]: twofold

O=C(NC1CCCCC1)c1ccc(OCc2ccccc2)nc1 [8k]
estimated divergence of MPEP site interaction from functional activity ([2]; 21% displacement at 10 μM versus functional EC50): > 100 fold
oxidative metabolism in rat microsomal incubations ([3]; soft-spot analysis, rat microsomes): extensive oxidative metabolism

O=C(NC1CCCCC1)c1ccc(OCc2ccc(F)cc2)nc1 [8m]
loss in activity relative to 8k ([1]; relative to 8k): sevenfold

O=C(N[C@@H](C1CC1)C(F)(F)F)c1ccc(OCc2cccc(F)c2)nc1 [8u]
metabolic stability in vitro ([3]; data not shown): relatively stable metabolically in vitro

C[C@@H](NC(=O)c1ccc(OCc2cccc(F)c2)nc1)C(C)(C)C [8v]
increase in activity over cyclohexyl analog R-8t ([1]; high expressing rat receptor HEK cell line): twofold
displacement of the MPEP-site radioligand [3H]-methoxyPEPy (extent) [2]: full displacement
agonism activity for compound alone [4]: no detected agonism activity
shift of the glutamate CRC [5]: fivefold
effect of MPEP-site point mutations on shift of the glutamate CRC [6]: reduced the ability
clearance ([7]; rat, plasma, iv, 1 mg/kg): 13.7 mL/min/kg
first-pass effect (Ehep) ([7]; rats, snapshot oral PK, portal vein vs plasma): 0.41
concentration at 90 min [8]: ~74 nM
reversal of amphetamine-induced hyperlocomotion [9]: robust effects in reversal of hyperlocomotion

C[C@@H](NC(=O)c1ccc(OCc2cccc(F)c2)cc1)C(C)(C)C [8w]
EC50 relative to 8v ([1]; direct comparator to 8v): ~ 2.5 fold

CCCCOc1ccc(C(=O)Nc2ccc(F)cc2F)cc1 [compound 6]
displacement of the MPEP-site ligand [3H]methoxyPEPy [10]: not observed to displace

— PMC3755010 (Bioorganic & medicinal chemistry letters, 2012)
